From patent publication US6420372B1, “Febrifugine, isofebrifugine and method for producing the same” (Japan Science and Technology Corporation, priority 1999, dated 2002)
Read-outs that look alike come from different tables or passages of the source.

Experiments:
[1] = tested on: P. falciparum FCR-3 strain (ATCC 30932); test: Screening of malarial protozoan growth inhibition (culture assay); assay type: cell-based; details: for EC50: Plasmodium falciparum, Erythrocyte, read-out: P. falciparum EC50; for Ratio of Selective Toxicity for Malarial Protozoan <chemotherapeutic coefficient>: [EC50 for mouse FM3A cell]/[EC50 for tropical fever malarial protozoan]; for malarial protozoan growth inhibiting activity (in words): summary of Table 1
Method: In this experiment, P. falciparum FCR-3 strain (ATCC 30932) was employed as the tropical fever malarial protozoan. In order to verify the effect of the commercially available anti-malarial agent chloroquin on resistant strains, a chloroquin resistant malarial protozoan of the P. falciparum K1 strain was employed. The medium used in this experiment was a filter-sterilized RPMI1640 medium which was adjusted to pH 7.4 and supplemented with 10% human serum. The malarial protozoan was cultured under 5% O2, 4% CO2 and […] at 36.5° C. The hematocrit level (% volume of erythrocyte in erythrocyte suspension) was adjusted to 5% for use. The initial infection rate with the tropical fever malarial protozoan at the beginning of the cultivation was 0.1%. The cultivation was performed using a 24-well cultivation plate, replacing the culture medium everyday, and subcultured at an infection rate of 4%. The infection rate was obtained by making a thin layer smear preparation, which was subjected to Giemsa staining or Diff-Qick staining, and observed microscopically (immersed in oil, magnified to ×1000) after which the malarial protozoan infection rate was determined using the following equation.
Malarial protozoan infection rate=[(number of infected erythrocyte)/(total number of erythrocyte)]×100 The cultured malarial protozoan-infected erythrocyte was collected by centrifugation, and washed with a serum-supplemented medium, after which a non-infected erythrocyte was added to adjust the initial infection rate to 0.3%. At this time, the hematocrit rate was 3%. The sample used in the test was obtained by dissolving in sterilized water, dimethylformamide (DMF), or dimethylsulfoxide (DMSO) to create samples of desired concentration.
5 to 10 μl of the sample were added to a 24-well cultivation plate. The samples were tested in duplicates or triplicates. As a control, 10 μl/well of sterilized water, DMF or DMSO was employed.
Subsequently, to the above medium, 990 to 995 μl of the tropical fever malarial protozoan culture medium previously prepared were added by gentle pipetting to create a uniform suspension. The culture plate was incubated for 72 hours in a CO2—O2—N2 (5%, 5%, 90%) incubator, after which thin layer smear preparations of each well was made, stained, and observed microscopically, to determine the infection rate together with the infection rate for the control.
From the malarial protozoan infection rate obtained by the method described above, the reproductive rate was calculated, whereby obtaining the 50% growth inhibition concentration (EC50) for malarial protozoan.
Reproductive rate={([b]−[a])/([c]−[a])}×100 a: initial infection rate b: infection rate with sample added c: infection rate without sample (Control)

[2] = tested on: mouse breast cancer FM3A cells (F28-7 strain); test: Mouse FM3A cell growth inhibition test; assay type: cell-based; details: read-out: FM3A EC50
Method: An F28-7 strain, a wild cell strain derived from mouse breast cancer FM3A cells was employed. A medium was prepared by supplementing an ES medium with 2% inactivated fetal calf serum, and incubated at 37° C. under 5% CO2. Under these conditions, the doubling time of the FM3A cell was about 12 hours.
Following preincubation, the cells in logarithmic growth phase were diluted with the medium to 5×10^4 cells/ml. The sample used was one prepared for the anti-malarial activity test of the malaria protozoan. 5 to 10 μl of the samples were added to a 24-well cultivation plate (final concentration after addition of medium was 1×10^−4 to 1×10^−6). The compounds were tested in duplicates or triplicates, and wells containing 10 μl of sterilized water, DMF or DMSO were also prepared as a control. Subsequently, 990 to 995 μl of the cultured cell suspension previously prepared were added by gentle pipetting, and uniformly suspended in the medium. After incubating for 48 hours, the number of cells in each well was counted using SELF CONTROLLER (CC-108, Toa Medical Electrics) and the reproductive rate was calculated by using the following equation.
Reproductive rate (%)={([C]−[A])/([B]−[A])}×100
A: initial number of cells
B: number of control cell after 48 hours
C: number of cells after 48 hours from sample addition
The cell growth inhibition activity was calculated from the number of cells in the well containing the sample and the number of cells in the control. From the results thus obtained, the cytotoxicity of each sample was evaluated and represented as the cell growth inhibition concentration (EC50). The EC50 value is the concentration (expressed as molar concentration) of a sample necessary to inhibit the reproductive rate of the control by 50%, wherein the reproductive rate or the rate of malarial protozoan infection for the control in which samples are not added to the medium of malarial protozoan or FM3A cell, is regarded as 100%.

Row | Compound | EC50 ([1]; 72 h) [nM] | Ratio of Selective Toxicity for Malarial Protozoan <chemotherapeutic coefficient> [1] | malarial protozoan growth inhibiting activity (in words) [1] | EC50 ([2]; 48 h) [nM] | EC50 ([1]; 50% growth inhibition concentration, infected erythrocytes, 72 hours incubation, infection rate by stained smear) [nM] | EC50 ([2]; cell growth inhibition concentration (cytotoxicity), 48 hours incubation, cell count) [nM]
1 | O=C(C[C@H]1NCCC[C@@H]1O)Cn1cnc2ccccc2c1=O [A, (2′R, 3′S)-febrifugine] | 0.3 | 2667 | selective malarial protozoan growth inhibiting activity | 800 |  | 
2 | O=c1c2ccccc2ncn1CC1(O)C[C@@H]2NCCC[C@@H]2O1 (stereo partly drawn) [B, (2′S, 3′S)-isofebrifugine] |  | 2895 | selective malarial protozoan growth inhibiting activity |  | 0.076 | 220
3 | O=C(C[C@@H]1NCCC[C@H]1O)Cn1cnc2ccccc2c1=O [Formula A0, reference compound] | 190 | 105 |  | 20000 |  | 
4 | O=c1c2ccccc2ncn1CC1(O)C[C@@H]2NCCC[C@H]2O1 (some centres unmarked) [Formula B0, reference compound] | 200 | 110 |  | 22000 |  | 
